In patent publication EP4523682A1, “PROCESS TO COMPLEX OLEANOLIC ACID WITH CYCLODEXTRINS AND PRODUCTS OBTAINED THEREOF” (FUNDACION UNIVERSITARIA SAN ANTONIO (UCAM), priority 2023, dated 2025):

Columns and labels:
[1] = tested on: c-Jun active phosphorylated form (p-c-Jun); assay: Cell-front migration assay, p-c-Jun immunostaining; type: cell-based, Mink; settings: 12.5/3.12 µM/mM OA/HP-β-CD, 5 µM OA/DMSO
Experimental: Mv1Lu cells are grown until they reach confluence on round glass-coverslips in 10% FBS-EMEM medium. At this time, cells are washed and a 24h serum-starvation period is set by replacing the medium with FBS-free EMEM. After this, the epithelium is scratched using a razor blade, which produces an artificial wound with enough space to allow cells to migrate. […] After the selected times of incubation, glass-coverslips are fixed with 4% formaldehyde (Applichem GmbH, Darmstadt, Germany) in PBS (Biowest, Nuaillé, France) for 10 minutes and washed twice with PBS. After this, cells are permeabilized with 0,3% Triton X-100 (Sigma-Aldrich, St Louis, MO, USA) in PBS for 10 minutes. […] In order to quantify phospho-c-Jun levels in immunofluorescence pictures, images are analyzed and quantified by Image J software. […] Within each sector, the quantified signal of each nucleus is used as a replicate to obtain p-c-Jun intensity data in each of the conditions performed. For a better understanding, the relation of number of p-c-Jun positive nuclei between total nuclei number is calculated. For this purpose, a basal p-c-Jun intensity mean is calculated considering the control condition of the assays, set as a threshold. […]
Data of intensity values obtained from p-c-Jun nuclei quantifications in immunofluorescence pictures are analyzed by using two statistic tests: Two-way ANOVA test and One-way ANOVA test.

[2] = tested on: focal adhesions (FAs) revealed by Paxillin; assay: Cell-front migration assay, focal adhesions by paxillin immunostaining; type: cell-based, Mink; settings: 6 and 12 hours; 12.5/3.12 µM/mM OA/HP-β-CD; 5 µM OA/DMSO; versus basal and vehicle control
Experimental: Mv1Lu cells are grown until they reach confluence on round glass-coverslips in 10% FBS-EMEM medium. At this time, cells are washed and a 24h serum-starvation period is set by replacing the medium with FBS-free EMEM. After this, the epithelium is scratched using a razor blade, which produces an artificial wound with enough space to allow cells to migrate. […] After the selected times of incubation, glass-coverslips are fixed with 4% formaldehyde (Applichem GmbH, Darmstadt, Germany) in PBS (Biowest, Nuaillé, France) for 10 minutes and washed twice with PBS. After this, cells are permeabilized with 0,3% Triton X-100 (Sigma-Aldrich, St Louis, MO, USA) in PBS for 10 minutes. For immunostaining, a blocking is performed for 30 minutes at room temperature in PBS solution with 10% FBS, 5% skim milk (Beckton Dickinson, Franklin Lakes, NJ, USA), 0,3% bovine serum albumin (BSA, Sigma-Aldrich, St Louis, MO, USA) and 0,1% Triton X-100. Then, cells are incubated 1 hour at room temperature with anti-paxillin or anti-phospho-c-Jun antibodies, diluted in blocking solution without skim milk. […] Briefly, focal adhesions are quantified from paxillin stained acquired pictures. […] Then, the number of FAs are calculated in each filopodia by using the previously mentioned macros. […] In parallel, the size of each FA is measured using the macros mentioned above. Finally, FA average size is calculated for each treatment.

c-Jun = assay: Western blot; type: cell-based, Human; settings: 21/5.25 µM/mM OA/HP-β-CD; 10 µM OA/DMSO
Experimental: (§1) Mv1Lu or MDA-MB-231 cells are seeded and allowed to reach 60% confluence in 10 cm diameter plates. At this time, culture medium containing 10% FBS is replaced by an FBS-free medium, incubating the cells for a 24-hours period. Serum-deprived cells are treated with either OA, OA/HP-β-CD, DMSO, HP-β-CD or 10 ng/ml EGF. After time incubations, cells are harvested, washed twice with ice-cold PBS and lysed with 20 mM TRIS pH 7.5, 150 mM NaCl, 1 mM EDTA, 1.2 mM MgCl2, 0.5%, Nonidet p-40, 1mM DTT, 25 mM NaF and 25 mM β-glycerophosphate supplemented with phosphatase inhibitors (I and II) and protease inhibitors (all from Sigma-Aldrich, St Louis, MO, USA). Total protein amount of all extracts is measured and normalized by Bradford assay (Sigma-Aldrich, St Louis, MO, USA). The extracts are analyzed by SDS-PAGE followed by Western blot (WB) using the indicated antibodies (see Antibodies section). […] For protein quantification, Western pictures in 8-bit format are processed in imaged software. Subsequently, in all Western blot pictures, a lane is stablished for each of the samples. In each lane, the band is selected according to the specific size (kDa) of the protein of interest. For each total protein and their phosphorylated version, each band's intensity peak is plotted, and next, the area under the plot is measured by using "Wand (tracing) tool" of imaged to obtain the intensity value. In order to normalize, obtained intensity values are referred to obtained intensity values of either the unphosphorylated form of the protein (total) or a loading control protein such as β-actin, only if the unphosphorylated form is undetectable (non-available antibody for detecting the unphosphorylated form). […]

[3] = tested on: phospho-JNK1/2 (Thr 183/Tyr 185); assay: Western blot; type: cell-based, Human; settings: 21/5.25 µM/mM OA/HP-β-CD; 10 µM OA/DMSO
Experimental: as §1

phospho-c-Jun (Ser 63) = assay: Western blot; type: cell-based, Human; settings: 21/5.25 µM/mM OA/HP-β-CD; 10 µM OA/DMSO
Experimental: as §1

For Oleanolic acid [OA/DMSO], the “p-c-Jun in cells at the edge of the wound (immunostaining)” value ([1]; 6 and 12 hours) was “promote the up-regulation of this active form of c-Jun”, the “p-c-Jun fluorescence in the nuclei (quantified)” value [1] was “promoted the expression and activation of this factor” and the “number of adhesion foci (FAs density)” value [2] was “greater number of adhesion foci”. The “size of adhesion foci (FA average size)” value [2] was “small foci”, the “total c-Jun levels” value (c-Jun) was “stimulated c-Jun overexpression at the early time of 1 h” and the p-JNK1/2 [3] was “stimulated this kinase at time 1 hours”. For the same substance, the p-c-Jun (phospho-c-Jun (Ser 63)) was “stronger stimulation of p-c-Jun at time 1 hour”.
